Test results taken from patent publication US6630505B2, “Aminopyrrolidine sulfonamides as serine protease inhibitors” (Ortho-McNeil Pharmaceutical, Inc., priority 2001, dated 2003).

target: T1, human Factor Xa (Homo sapiens, UniProt P00742); experiment: Factor Xa inhibition, enzyme-catalyzed hydrolysis assay (chromogenic substrate); type: biochemical; conditions: 5.7 nM Factor Xa, 30-700 μM substrate, pH 8.4, 37° C.
T1 construct: commercial human Factor Xa (American Diagnostica); purchased American Diagnostica
Description: Enzyme-catalyzed hydrolysis rates were measured spectrophotometrically using commercial human Factor Xa (American Diagnostica), the chromogenic substrate (Meo—CO—D—CHG—Gly—Arg—pNa (American Diagnostica); in aqueous buffer (50 mM Trisma Base, 0.1% Tween 80, pH 8.4), and a microplate reader (Molecular Devices). Changes in absorbance at 405 nm were monitored using the software program Softmax (Molecular Devices), upon addition of enzyme, with and without inhibitor present at 37° C. for 30 minutes. The IC50 values were determined by fixing the enzyme and substrate concentrations (5.7 nM Factor Xa, 500 μM Factor Xa substrate) and varying the inhibitor concentration. Percent inhibition was calculated by comparing the initial reaction slopes of the without inhibitor samples to those with inhibitor. Inhibition constants (Ki) were determined by fixing the enzyme concentrations (5.7 nM Factor Xa) and inhibitor concentration and varying the substrate concentrations (30-700 μM Factor Xa substrate. Michaelis-Menton kinetics were applied to the initial reaction slopes using the program Kcat (Bio Metallics Inc.).

T1 sequence (P00742 235-488 limits assumed): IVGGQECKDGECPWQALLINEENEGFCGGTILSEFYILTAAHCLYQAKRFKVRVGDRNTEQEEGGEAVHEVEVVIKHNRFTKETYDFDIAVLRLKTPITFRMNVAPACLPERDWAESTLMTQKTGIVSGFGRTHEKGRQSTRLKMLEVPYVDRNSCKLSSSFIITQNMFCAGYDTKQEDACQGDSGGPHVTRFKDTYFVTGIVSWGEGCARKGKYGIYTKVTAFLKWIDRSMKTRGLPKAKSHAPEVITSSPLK
T1 sequence (P00742 41-179 partner limits assumed): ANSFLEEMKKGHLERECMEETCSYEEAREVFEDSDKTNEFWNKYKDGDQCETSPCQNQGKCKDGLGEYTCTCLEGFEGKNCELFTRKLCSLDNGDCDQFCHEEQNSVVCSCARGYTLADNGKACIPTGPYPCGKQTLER

First: COC(=O)c1ccc(CN(C2CCN(C(=O)c3ccc(N=C(N)N)cc3)C2)S(=O)(=O)/C=C/c2ccc(Cl)cc2)cc1 (stereo not shown) [Compound 22, 4-[[[[(E)-2-(4-chlorophenyl)ethenyl]sulfonyl][1-[4-[(diaminomethylene)amino]benzoyl]-3-pyrrolidinyl]amino]methyl]-benzoic acid methyl ester]
Second: NC(N)=Nc1ccc(C(=O)N2CCC(N(Cc3ccc(OCc4ccccc4)cc3)S(=O)(=O)/C=C/c3ccc(Cl)cc3)C2)cc1 (stereo not shown) [Compound 17, 2-(4-chlorophenyl)-N-[1-[4-[(diaminomethylene)amino]benzoyl]-3-pyrrolidinyl]-N-[[4-(phenylmethoxy)phenyl]methyl]-(E)-ethenesulfonamide]
The Ki of the first is 1.6-fold higher: 7100 nM for the first, 4400 nM for the second.

Going from “4-[(aminoiminomethyl)amino]-N-(2-benzofuranylmethyl)-N-[1-[[(E)-2-(4-chlorophenyl)ethenyl]sulfonyl]-3-pyrrolidinyl]-benzamide [Compound 27]” to `NC(N)=Nc1ccc(C(=O)N(Cc2ccc(O)cc2)C2CCN(S(=O)(=O)/C=C/c3ccc(Cl)cc3)C2)cc1` (stereo not shown) [Compound 2, N-[1-[[(E)-2-(4-chlorophenyl)ethenyl]sulfonyl]-3-pyrrolidinyl]-4-[(diaminomethylene)amino]-N-[(4-hydroxyphenyl)methyl]-benzamide], the Ki rises from 100 nM to 300 nM (3-fold). The first binds more tightly here.

First: NC(N)=Nc1ccc(C(=O)N(Cc2cccc(C(=O)NCC(=O)O)c2)C2CCN(S(=O)(=O)/C=C/c3ccc(Cl)cc3)C2)cc1 (stereo not shown) [Compound 14, [[3-[[[1-[[(E)-2-(4-chlorophenyl)ethenyl]sulfonyl]-3-pyrrolidinyl][4-[(diaminomethylene)amino]benzoyl]amino]methyl]benzoyl]amino]-acetic acid]
Second: NC(N)=Nc1ccc(C(=O)N(Cc2cccc(OCC(=O)O)c2)C2CCN(S(=O)(=O)/C=C/c3ccc(Cl)cc3)C2)cc1 (stereo not shown) [Compound 11, [3-[[[1-[[(E)-2-(4-chlorophenyl)ethenyl]sulfonyl]-3-pyrrolidinyl][4-[(diaminomethylene)amino]benzoyl]amino]methyl]phenoxy]-acetic acid]
The Ki of the first is 2-fold lower: 300 nM for the first, 600 nM for the second.

First: NC(N)=Nc1ccc(C(=O)N(Cc2ccccc2)C2CCN(S(=O)(=O)/C=C/c3ccc(Cl)cc3)C2)cc1 (stereo not shown) [Compound 1, N-[1-[[(E)-2-(4-chlorophenyl)ethenyl]sulfonyl]-3-pyrrolidinyl]-4-[(diaminomethylene)amino]-N-(phenylmethyl)-benzamide]
Second: COc1ccc2ccc(S(=O)(=O)N(Cc3ccccc3)C3CCN(C(=O)c4ccc(N=C(N)N)cc4)C3)cc2c1 (stereo not shown) [Compound 23, N-[1-[4-[(diaminomethylene)amino]benzoyl]-3-pyrrolidinyl]-7-methoxy-N-(phenylmethyl)-2-naphthalenesulfonamide]
The Ki of the first is 13-fold lower: 1600 nM for the first, 21000 nM for the second.

`COC(=O)CNC(=O)c1cccc(CN(C(=O)c2ccc(N=C(N)N)cc2)C2CCN(S(=O)(=O)/C=C/c3ccc(Cl)cc3)C2)c1` (stereo not shown) [Compound 13, [[3-[[[1-[[(E)-2-(4-chlorophenyl)ethenyl]sulfonyl]-3-pyrrolidinyl][4-[(diaminomethylene)amino]benzoyl]amino]methyl]benzoyl]amino]-acetic acid methyl ester] and `NC(N)=Nc1ccc(C(=O)N(Cc2ccc(C(=O)O)cc2)C2CCN(S(=O)(=O)/C=C/c3ccc(Cl)cc3)C2)cc1` (stereo not shown) [Compound 5, 4-[[[1-[[(E)-2-(4-chlorophenyl)ethenyl]sulfonyl]-3-pyrrolidinyl][4-[(diaminomethylene)amino]benzoyl]amino]methyl]-benzoic acid] are the same in Ki: 200 nM for the first, 200 nM for the second.

Going from `COC(=O)c1cccc(CN(C(=O)c2ccc(N=C(N)N)cc2)C2CCN(S(=O)(=O)/C=C/c3ccc(Cl)cc3)C2)c1` (stereo not shown) [Compound 4, 3-[[[1-[[(E)-2-(4-chlorophenyl)ethenyl]sulfonyl]-3-pyrrolidinyl][4-[(diaminomethylene)amino]benzoyl]amino]methyl]-benzoic acid methyl ester] to `NC(=O)c1ccc(CN(C(=O)c2ccc(N=C(N)N)cc2)C2CCN(S(=O)(=O)/C=C/c3ccc(Cl)cc3)C2)cc1` (stereo not shown) [Compound 9, N-[[4-(aminocarbonyl)phenyl]methyl]-N-[1-[[(E)-2-(4-chlorophenyl)ethenyl]sulfonyl]-3-pyrrolidinyl]-4-[(diaminomethylene)amino]-benzamide], the Ki falls from 7700 nM to 300 nM (26-fold).

Going from `COC(=O)COc1cccc(CN(C(=O)c2ccc(N=C(N)N)cc2)C2CCN(S(=O)(=O)/C=C/c3ccc(Cl)cc3)C2)c1` (stereo not shown) [Compound 8, [3-[[[1-[[(E)-2-(4-chlorophenyl)ethenyl]sulfonyl]-3-pyrrolidinyl][4-[(diaminomethylene)amino]benzoyl]amino]methyl]phenoxy]-acetic acid methyl ester] to `NC(N)=Nc1ccc(C(=O)N(Cc2cccc(C(=O)O)c2)C2CCN(S(=O)(=O)/C=C/c3ccc(Cl)cc3)C2)cc1` (stereo not shown) [Compound 6, 3-[[[1-[[(E)-2-(4-chlorophenyl)ethenyl]sulfonyl]-3-pyrrolidinyl][4-[(diaminomethylene)amino]benzoyl]amino]methyl]-benzoic acid], the Ki falls from 1100 nM to 600 nM (1.8-fold).

`NC(N)=Nc1ccc(C(=O)N(Cc2ccc(C(=O)NCC(=O)O)cc2)C2CCN(S(=O)(=O)/C=C/c3ccc(Cl)cc3)C2)cc1` (stereo not shown) [Compound 12, [[4-[[[1-[[(E)-2-(4-chlorophenyl)ethenyl]sulfonyl]-3-pyrrolidinyl][4-[(diaminomethylene)amino]benzoyl]amino]methyl]benzoyl]-amino]-acetic acid] and `COC(=O)c1ccc(CN(C(=O)c2ccc(N=C(N)N)cc2)C2CCN(S(=O)(=O)/C=C/c3ccc(Cl)cc3)C2)cc1` (stereo not shown) [Compound 3, 4-[[[1-[[(E)-2-(4-chlorophenyl)ethenyl]sulfonyl]-3-pyrrolidinyl][4-[(diaminomethylene)amino]benzoyl]amino]methyl]-benzoic acid methyl ester] are the same in Ki: 400 nM for the first, 400 nM for the second.

First: COC(=O)CNC(=O)c1ccc(CN(C(=O)c2ccc(N=C(N)N)cc2)C2CCN(S(=O)(=O)/C=C/c3ccc(Cl)cc3)C2)cc1 (stereo not shown) [Compound 10, [[4-[[[1-[[(E)-2-(4-chlorophenyl)ethenyl]sulfonyl]-3-pyrrolidinyl][4-[(diaminomethylene)amino]benzoyl]amino]methyl]benzoyl]amino]-acetic acid methyl ester]
Second: NC(=O)c1cccc(CN(C(=O)c2ccc(N=C(N)N)cc2)C2CCN(S(=O)(=O)/C=C/c3ccc(Cl)cc3)C2)c1 (stereo not shown) [Compound 15, 3-[[[1-[[(E)-2-(4-chlorophenyl)ethenyl]sulfonyl]-3-pyrrolidinyl][4-[(diaminomethylene)amino]benzoyl]amino]methyl]-benzamide]
The Ki of the first is 3-fold lower: 200 nM for the first, 600 nM for the second. The first binds more tightly here.

target: T2, human Lung Tryptase; experiment: Tryptase inhibition, chromogenic peptide substrate hydrolysis assay; type: biochemical; conditions: 1.0 nM tryptase, 500 μM N-p-Tosyl-GLY-PRO-LYS-pNA, 37° C.
T2 construct: 1.0 nM human Lung Tryptase
Description: The rate of increase in absorbance at 405 nm due to hydrolysis of synthetic chromogenic peptide substrates ([S]: 500 μM N-p-Tosyl-GLY-PRO-LYS-pNA; Sigma T-6140) is measured in the presence and absence of inhibitors (I) with a microplate reader at 37° C. The enzyme reaction is started by the addition of enzyme ([E]: 1.0 nM human Lung Tryptase; Cortex Biochem CP3033). Data is collected over a period of 30 min. and the initial rate of substrate hydrolysis (Vo (mOD/min)) is calculated. Inhibition is calculated by comparing to wells […] (vehicle) and IC50s are determined using a four parameters fit logistics model.

First: NC(N)=Nc1ccc(C(=O)N(Cc2ccc(O)cc2)C2CCN(S(=O)(=O)/C=C/c3ccc(Cl)cc3)C2)cc1 (stereo not shown) [Compound 2, N-[1-[[(E)-2-(4-chlorophenyl)ethenyl]sulfonyl]-3-pyrrolidinyl]-4-[(diaminomethylene)amino]-N-[(4-hydroxyphenyl)methyl]-benzamide]
Second: NC(N)=Nc1ccc(C(=O)NC2CCN(S(=O)(=O)/C=C/c3ccc(Cl)cc3)C2)cc1 (stereo not shown) [Compound 26, N-[1-[[(E)-2-(4-chlorophenyl)ethenyl]sulfonyl]-3-pyrrolidinyl]-4-[(diaminomethylene)amino]-benzamide]
The IC50 of the first is 1.5-fold higher: 900 nM for the first, 600 nM for the second.

Compared with “N-[[4-[(aminoiminomethyl)amino]phenyl]methyl]-N-[1-[[(E)-2-(4-chlorophenyl)ethenyl]sulfonyl]-3-pyrrolidinyl]-4-[(diaminomethylene)amino]-benzamide [Compound 24]”, `COC(=O)c1cc(CN(C(=O)c2ccc(N=C(N)N)cc2)C2CCN(S(=O)(=O)/C=C/c3ccc(Cl)cc3)C2)ccc1O` (stereo not shown) [Compound 25, 5-[[[1-[[(E)-2-(4-chlorophenyl)ethenyl]sulfonyl]-3-pyrrolidinyl][4-[(diaminomethylene)amino]benzoyl]amino]methyl]-2-hydroxy-benzoic acid methyl ester] is 5.7-fold lower in IC50: 4000 nM for the first, 700 nM for the second.
